Laboratory results from US9918968B2, “Rapamycin analogs targeting proteasome function in the treatment of cancer” (THE BOARD OF REGENTS OF THE UNIVERSITY OF TEXAS SYSTEM, priority 2013, dated 2018).

How the values were obtained:
[1] = test system: MDA-MB-231 (triple-negative breast cancer) cells; assay: Viability/growth of MDA-MB-231 cells; type: cell-based, human
Description: The cells were grown in 24 or 12-well cell culture plates. […] The final concentration of the solvent was 1% (vol/vol). The number of live and dead cells after the treatment was approximated with calcein AM and ethidium homodimer (LiveDead test, Invitrogen) according to manufacturer's protocol, or by a Trypan Blue exclusion assay. In short, the cells after the treatment were washed three times with PBS and overlaid (surface-growing) or mixed (suspension-growing) with 4 microM calcein AM and 2 microM ethidium homodimer in PBS. […] The cell counts were approximated using standard curves of live and digitonin-killed cells prepared for each strain. Alternatively, after cell treatment the medium was removed, the surface growing cells were overlaid with Trypan Blue solution, and the colorless (live) and blue-colored (dead) cells were counted under the inverted microscope.

mTOR = mTOR (Homo sapiens, UniProt P42345+P62942); conditions: cited from earlier work

With `CO[C@@H](C[C@@H]1CC[C@@H](C)[C@](O)(C(=O)C(=O)N2CCCC[C@H]2C(=O)[O-])O1)/C(C)=C/C=C/C=C/[C@@H](C)C[C@@H](C)C(=O)[C@H](OC)[C@H](O)/C(C)=C/[C@@H](C)C(=O)/C=C/[C@H](C)C[C@@H]1CC[C@@H](O)[C@H](OC)C1.[Na+]` [seco-rapamycin] as the molecule, how does the EC50 ([1]; 24 hours, drug alone, read-out: EC50 (concentration required to exclude 50% of cells)) read?
The EC50 was 869 nM.

And the “growth of MDA-MB-231 cells” value ([1]; seco-rapamycin alone)?
Its value is “attenuated growth”.

What about the “effect on mTOR function” value (mTOR) of the same molecule?
Its value is “not to affect the mTOR function”.
